# Tests used:
# [1] = test system: MDA MB 231 tumor xenografts; test: MDA MB 231 tumor xenograft growth in athymic nude mice; format: in vivo; conditions: for mean tumor volume: 45 mg/kg i.p. 3 times a week
# Experimental: (§1) Animal experiments were performed in accordance with current Italian legislation and the animal protocol has been reviewed and approved by Italian Ministero della Salute (authorization n. 886/2020-PR). The study was designed to verify the effect of newly synthetized molecule with DDX3X inhibitor activity administered via i.p at a concentration of 45 mg/kg on the tumor growth of xenograft MDA MB 231 human breast cancer cells. In the study, n refers to the number of tumors expressed on both flanks of the animals. The sample size was calculated by g-power calculator placing a predictable large (2-fold increase) effect size, alpha as 0.05, and a confidence interval of 95% and we set our experimental unit number of 10 (corresponding to 5 animals). Total number of animals used in the study was 10. Six-week-old athymic nude mice were purchased from Charles River Laboratories. Five animals in each cage acclimatized in our animal facilities for 5 days in individually ventilated cages. Animals were fed with the lab diet ad libitum and water was accessible at all times and kept under standard specific pathogen-free conditions of 12 h light/dark cycle. Observational analysis was performed at the beginning of experimental procedure to ensure animal wellbeing (Table S1).
# To establish xenograft tumors, MDA MB 231 cells were cultured in media as described above. On the day of experiment, cells (2.8 × 10^6) were suspended in 150 μL PBS 1:1 Matrigel and injected subcutaneously on both size of the flank region of nude mice. In order to determine tumor volume by manual caliper, the greatest longitudinal diameter (length) and the greatest transverse diameter (width) were determined. Tumor volumes based on caliper measurements were calculated by the modified ellipsoidal formula Tumor volume = 1/2(length × width^2).
# Group allocation and treatments: once tumors reached a mean size of 24.82 ± 2.56 mm^3, animals were allocated in two groups by minimization strategy according to tumor size: the treatment group received 100 μL of a 45 mg/kg FHP01 suspended in a vehicle consisting of 10% DMSO, 5% Tween 80, 85% H2O via i.p. injection three times per week for 4 weeks; the control group included animals treated with 100 μL of vehicle (10% DMSO, 5% Tween 80, 85% H2O). One control animal reached HEP and was sacrificed and was not account for in the analysis. […]
# For the final statistics, the number of tumors analyzed was 8 in the control group (one animal died for unknown reasons as certified by the AWB designed veterinary) and 9 for the treated group (the volume of one tumor was considered outlier). Results were reported as tumor volume increase, normalizing the value of each measurement to the baseline value of each sample and expressed as mean ± SEM. […]
# [2] = Tolerability in xenograft study: body weight and organ histology; format: in vivo, athymic nude mice
# Experimental: as §1, with “S1). […]” for “S1).”
# [3] = test system: WNT signaling (TCF/LEF transcriptional activity); test: TCF/LEF luciferase reporter assay (WNT1/WNT3A) in MDA MB 231 cells; format: cell-based, human; conditions: MDA MB 231, 6 μM, 48 h
# Experimental: MDA MB 231 cells were seeded at 3 × 10^4 cells/well density in 12-well plates, in triplicate, and transfected with 250 ng of the M50 Super 8× TOPFlash reporter vector (Addgene Plasmid #12456) and 1 μg of expression vectors inducing the WNT pathway (Wnt1-V5, Addgene plasmid #43807, and Wnt3A-V5, Addgene plasmid #43810). Eight hours after transfection, cells were treated with FHP01, XAV939 (Merck, Kenilworth, NJ, USA) or DMSO for indicated times prior to lysis in Passive Lysis Buffer (Promega, Madison, WI, USA). Luciferase activity in cellular lysates was assessed on a Glomax 20/20 luminometer (Promega) using the Luciferase Assay System (Promega). Results were normalized for GFP expression, upon transfection with GFP coding vector (1 μg). Representative results from 3 independent experiments are shown (n = 3). Error bars represent the Standard Error of the Mean. All samples were read at least in triplicate.
# MDA MB 468 cells = test: Cell viability / cytotoxicity assay (cell counting); format: cell-based; conditions: Homo sapiens
# Experimental: (§2) Cells were seeded at 3–5 × 10^4 cells/well density (depending on cell lines) in 12-well plates, in triplicate, and maintained at 37 °C in 5% CO2. After 24 h, cells were treated with different concentrations of indicated drugs in a range from 0 to 100 μM (0, 0.1, 1, 10, 50, 100 μM). […] Cell number of each sample was determined with Z2 Coulter Counter (Beckman Coulter, Brea, CA, USA), in triplicate. Data about cell viability were plotted in GraphPad Prism 8.0 software (GraphPad Software, San Diego, CA, USA) to draw dose-response curve and to calculate IC50.
# MDA MB 231 cells = test: as above; format: cell-based; conditions: Homo sapiens
# Experimental: as §2
compound,measurement,setting,value
CCCCc1cn(-c2ccc(NC(=O)Nc3ccccc3C(F)(F)F)cc2)nn1 [FHP01],mean tumor volume,[1]; Day 0 of the treatment,25.49± 4.58 mm^3
same,mean tumor volume,"[1]; Day 18, control 73.40 ± 9.72",24.18 ± 4.44 mm^3
same,mean tumor volume,"[1]; Day 28, control 129.85 ± 21.39",37.23 ± 11.45 mm^3
same,"effect size, decrease in tumor growth (control/treated)","[1]; end of the procedure, 45 mg/kg i.p.",about 4 fold
same,animal body weight,"[2]; 45 mg/kg i.p. 3 times a week, all the treatment period",No loss of animal body weight
same,"histology of liver, brain, spleen and kidney","[2]; after 4 weeks of i.p. treatment, 45 mg/kg",did not show any sign of toxicity
same,WNT1- and WNT3A-dependent TCF/LEF transcriptional activity,[3],strong inhibition
same,IC50,"MDA MB 468 cells; MDA MB 468, 24h",12.7 µM
same,IC50,"MDA MB 468 cells; MDA MB 468, 48h",3.48 µM
same,IC50,"MDA MB 468 cells; MDA MB 468, 72 h",3.06 µM
same,IC50,"MDA MB 231 cells; MDA MB 231, 24h",13.3 µM
same,IC50,"MDA MB 231 cells; MDA MB 231, 48h",4.14 µM
same,IC50,"MDA MB 231 cells; MDA MB 231, 72 h",3.21 µM

# Source: publication PMC8507746, “The FHP01 DDX3X Helicase Inhibitor Exerts Potent Anti-Tumor Activity In Vivo in Breast Cancer Pre-Clinical Models” (Cancers, 2021)
